Data as given in patent publication EP0236542B1, “Novel organic phosphinic acid compounds” (CYANAMID CANADA INC., priority 1980, dated 1982).
Read-outs that look alike come from different tables or passages of the source.

Experiment: pKa determination in 75% isopropanol
Type: physicochemical
Settings: product as isolated (assay about 85-88% phosphinic acid)

pKa (read-out: pKa)	pKa	Compound
6.04	–	CC(CC(C)(C)C)CP(=O)(O)C1CCCCC1 (centres unmarked) [2,4,4 -trimethylpentyl, cyclohexylphosphinic acid]
–	6.03 ± 0.05	CC(CC(C)(C)C)CP(=O)(O)CC(C)CC(C)(C)C (centres unmarked) [di-2,4,4 -trimethylpentylphosphinic acid]
